This is an account of results in EPA's ToxValDB 9.5 (doi:10.2903/j.efsa.2009.174r).

The conditions of data set [1]: reproductive.
Data set [2] deals with Anas platyrhynchos. The settings on record: acute, oral, unspecified.
Data set [3] concerns Aphidius rhopalosiphi. The following applies: not reported; mortality.
The test system of data set [4] is Apis mellifera. The following applies: acute; duration: 48 hours; dermal; mortality.
Data set [5] deals with Canidae. The settings on record: oral, Dog Other.
The test system of data set [6] is Colinus virginianus. The settings on record: oral; for LD50: acute, mortality.
The test system of data set [7] is Coturnix japonica. The settings on record: reproduction developmental; duration: 6 weeks.
In data set [8] the test system is Cyprinus carpio. The settings on record: acute; duration: 96 hours; mortality.
For data set [9], the system named is Daphnia magna. The settings on record: chronic/long-term; duration: 21 days; reproduction.
Data set [10] relates to Homo sapiens. The following applies: clinical; oral; capsule; clinical signs.
In data set [11] the test system is Landoltia sp. The following applies: chronic/long-term; duration: 14 days.
The subject of data set [12] is Pimephales promelas. The following applies: chronic/long-term; duration: 34 days; reproduction.
In data set [13] the test system is Rattus norvegicus. The following applies: acute; oral; mortality.
Data set [14] concerns Tagia sp.
Data set [15] relates to Zea sp. The following applies: chronic/long-term.

As for `O=P(O)(O)CCCl` [Ethephon], the NOAEL worked out at 22.8 mg/kg-day in [1]; 27 mg/kg-day in [5] (chronic, duration: 1 years, body weight); 6 mg/kg-day in data set [5] (short-term, duration: 28 days, clinical chemistry); 0.5 mg/kg-day in data set [10]. Further, the NOEL in data set [2] was 450 mg/kg; in data set [6] (short-term, duration: 8 days, diet), greater than 530 mg/kg-day; in data set [7], 159 mg/kg-day. The LD50 in data set [2] (mortality) was 1420 mg/kg; in [4] it was greater than 100 µg/piece; in data set [6] (duration: 8 days, diet) it was greater than 450 mg/kg; in [6] it was 764 mg/kg; in data set [13], 1560 mg/kg. The same compound displayed an LEL in data set [3] of 480 g/ha. The LC50 in [8] was greater than 100 µg/mL; in [14] (acute, duration: 14 days, mortality) it was greater than 60000 g/ha. For the same compound, the NOEC in data set [9] was 67 mg/L; in data set [11], less than 0.1 mg/L; in [12] it was 43 mg/L; in data set [14] (chronic/long-term, duration: 8 weeks, reproduction), no less than 200 mg/kg; in data set [15] it was 2580 g/ha.
